Assay results published in patent US8802597B2, “Herbicidal pyrimidines” (E I du Pont de Nemours and Company, priority 2003, dated 2014).

Tests used:
Type in all cases: in vivo
[1] = tested on: barnyardgrass (Echinochloa crus-galli); assay: Test B flooded paddy test; conditions: Flood
In short: (§1)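 Rice, umbrella sedge, duck salad and barnyardgrass grown to 2-leaf stage under flooded paddy conditions and treated with formulated test chemicals. Kept in greenhouse 13–15 days, then visually rated against untreated controls on a 0–100 scale (0 no effect, 100 complete control).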

[2] = tested on: duck salad (Heteranthera limosa); assay: Test B flooded paddy test; conditions: Flood, scale 0 to 100
In short: as §1

rice (Oryza sativa) = assay: Test B flooded paddy test; conditions: Flood, scale 0 to 100
In short: as §1

[3] = tested on: umbrella sedge (Cyperus difformis); assay: Test B flooded paddy test; conditions: Flood, scale 0 to 100
In short: as §1

corn (Zea mays) = assay: Test B pre/postemergence
In short: (§2)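 Scores reflect visual comparison with untreated controls, where 0 means no effect and 100 complete control. Plants stayed 13 to 15 days in the greenhouse after pre- or postemergence treatment with compounds carried in a non-phytotoxic solvent and surfactant.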

[4] = tested on: barnyardgrass (Echinochloa crus-galli); assay: Test B pre/postemergence
In short: as §2

[5] = tested on: morningglory (Ipomoea coccinea); assay: Test B pre/postemergence
In short: as §2

[6] = tested on: wheat (Triticum aestivum); assay: Test B pre/postemergence
In short: as §2

[7] = tested on: Surinam grass (Brachiaria decumbens); assay: Test B pre/postemergence
In short: as §2

[8] = tested on: giant foxtail (Setaria faberii); assay: Test B pre/postemergence
In short: as §2

[9] = tested on: pigweed (Amaranthus retroflexus); assay: Test B pre/postemergence
In short: as §2

[10] = tested on: cocklebur (Xanthium strumarium); assay: Test B pre/postemergence
In short: as §2

[11] = tested on: crabgrass (Digitaria sanguinalis); assay: Test B pre/postemergence
In short: as §2

[12] = tested on: lambsquarters (Chenopodium album); assay: Test B pre/postemergence
In short: as §2

[13] = tested on: velvetleaf (Abutilon theophrasti); assay: Test B pre/postemergence
In short: as §2

wild oat (Avena fatua) = assay: Test B postemergence; conditions: for Oat, Wild plant response rating: scale 0 to 100 (0 no effect, 100 complete control)
In short: as §2

[14] = tested on: blackgrass (Alopecurus myosuroides); assay: Test B postemergence; conditions: for Blackgrass plant response rating: scale 0 to 100 (0 no effect, 100 complete control)
In short: as §2

[15] = Postemergence, 62 g ai/ha, scale 0 to 100 (0 no effect, 100 complete control)
[16] = Postemergence, 125 g ai/ha, scale 0 to 100 (0 no effect, 100 complete control)
[17] = Preemergence, 62 g ai/ha, scale 0 to 100, 0 no effect, 100 complete control
[18] = Preemergence, 125 g ai/ha, scale 0 to 100 (0 no effect, 100 complete control)
[19] = Postemergence, 500 g ai/ha, scale 0 to 100
[20] = Preemergence, 500 g ai/ha, scale 0 to 100 (0 no effect, 100 complete control)

CCOC(=O)c1nc(-c2ccc(I)cc2)nc(N)c1Cl [Compound 133]
Plant response rating, Barnyardgrass ([1]; 125 g ai/ha, scale 0 to 100): 0 | Plant response rating, Barnyardgrass ([1]; 500 g ai/ha, scale 0 to 100): 0 | Plant response rating, Ducksalad ([2]; 125 g ai/ha): 90 | Plant response rating, Ducksalad ([2]; 500 g ai/ha): 90 | Plant response rating, Rice (rice (Oryza sativa); 125 g ai/ha): 0 | Plant response rating, Rice (rice (Oryza sativa); 500 g ai/ha): 0 | Plant response rating, Sedge, Umbrella ([3]; 125 g ai/ha): 90 | Plant response rating, Sedge, Umbrella ([3]; 500 g ai/ha): 90 | Corn plant response rating (corn (Zea mays); [15]): 70 | Corn plant response rating (corn (Zea mays); [16]): 80 | Plant response rating, Corn (corn (Zea mays); [17]): 0 | Plant response rating, Corn (corn (Zea mays); [18]): 0 | Barnyardgrass plant response rating [4, 15]: 70 | Barnyardgrass plant response rating [4, 16]: 70 | Plant response rating, Barnyardgrass [4, 17]: 30 | Plant response rating, Barnyardgrass [4, 18]: 30 | Morningglory plant response rating [5, 15]: 70 | Morningglory plant response rating [5, 16]: 100 | Plant response rating, Morningglory [5, 17]: 0 | Plant response rating, Morningglory [5, 18]: 0 | Wheat plant response rating [6, 15]: 0 | Wheat plant response rating [6, 16]: 50 | Plant response rating, Wheat [6, 17]: 50 | Plant response rating, Wheat [6, 18]: 60 | Surinam Grass plant response rating [7, 15]: 60 | Surinam Grass plant response rating [7, 16]: 70 | Plant response rating, Surinam Grass [7, 17]: 0 | Plant response rating, Surinam Grass [7, 18]: 10 | Foxtail, Giant plant response rating [8, 15]: 60 | Foxtail, Giant plant response rating [8, 16]: 70 | Plant response rating, Foxtail, Giant [8, 17]: 0 | Plant response rating, Foxtail, Giant [8, 18]: 20 | Pigweed plant response rating [9, 15]: 90 | Pigweed plant response rating [9, 16]: 100 | Plant response rating, Pigweed [9, 17]: 70 | Plant response rating, Pigweed [9, 18]: 80 | Cocklebur plant response rating [10, 15]: 100 | Cocklebur plant response rating [10, 16]: 100 | Plant response rating, Cocklebur [10, 17]: 20 | Plant response rating, Cocklebur [10, 18]: 50 | Crabgrass plant response rating [11, 15]: 60 | Crabgrass plant response rating [11, 16]: 70 | Plant response rating, Crabgrass [11, 17]: 40 | Plant response rating, Crabgrass [11, 18]: 70 | Lambsquarters plant response rating [12, 15]: 100 | Lambsquarters plant response rating [12, 16]: 100 | Plant response rating, Lambsquarters [12, 18]: 70 | Velvetleaf plant response rating [13, 15]: 90 | Velvetleaf plant response rating [13, 16]: 100 | Plant response rating, Velvetleaf [13, 17]: 50 | Plant response rating, Velvetleaf [13, 18]: 60 | Oat, Wild plant response rating (wild oat (Avena fatua); 62 g ai/ha): 40 | Oat, Wild plant response rating (wild oat (Avena fatua); 125 g ai/ha): 60 | Blackgrass plant response rating ([14]; 62 g ai/ha): 60 | Blackgrass plant response rating ([14]; 125 g ai/ha): 70

COCc1nc(C2CC2)nc(N)c1Br [Compound 11]
Plant response rating, Barnyardgrass ([1]; 1000 g ai/ha, scale 0 (no effect) to 100 (complete control)): 0 | Plant response rating, Ducksalad ([2]; 1000 g ai/ha): 70 | Plant response rating, Rice (rice (Oryza sativa); 1000 g ai/ha): 0 | Plant response rating, Sedge, Umbrella ([3]; 1000 g ai/ha): 20 | Corn plant response rating (corn (Zea mays); [16]): 0 | Plant response rating, Corn (corn (Zea mays); [19]): 0 | Plant response rating, Corn (corn (Zea mays); [18]): 0 | Corn plant response rating (corn (Zea mays); [20]): 0 | Barnyardgrass plant response rating [4, 16]: 20 | Plant response rating, Barnyardgrass [4, 19]: 90 | Plant response rating, Barnyardgrass [4, 18]: 0 | Barnyardgrass plant response rating [4, 20]: 10 | Morningglory plant response rating [5, 16]: 80 | Plant response rating, Morningglory [5, 19]: 100 | Plant response rating, Morningglory [5, 18]: 80 | Morningglory plant response rating [5, 20]: 90 | Wheat plant response rating [6, 16]: 0 | Plant response rating, Wheat [6, 19]: 40 | Plant response rating, Wheat [6, 18]: 0 | Wheat plant response rating [6, 20]: 50 | Surinam Grass plant response rating [7, 16]: 20 | Plant response rating, Surinam Grass [7, 19]: 50 | Plant response rating, Surinam Grass [7, 18]: 10 | Surinam Grass plant response rating [7, 20]: 70 | Foxtail, Giant plant response rating [8, 16]: 10 | Plant response rating, Foxtail, Giant [8, 19]: 50 | Plant response rating, Foxtail, Giant [8, 18]: 10 | Foxtail, Giant plant response rating [8, 20]: 70 | Pigweed plant response rating [9, 16]: 80 | Plant response rating, Pigweed [9, 19]: 90 | Plant response rating, Pigweed [9, 18]: 80 | Pigweed plant response rating [9, 20]: 90 | Cocklebur plant response rating [10, 16]: 80 | Plant response rating, Cocklebur [10, 19]: 90 | Plant response rating, Cocklebur [10, 18]: 80 | Cocklebur plant response rating [10, 20]: 90 | Crabgrass plant response rating [11, 16]: 30 | Plant response rating, Crabgrass [11, 19]: 70 | Plant response rating, Crabgrass [11, 18]: 30 | Crabgrass plant response rating [11, 20]: 80 | Lambsquarters plant response rating [12, 16]: 90 | Plant response rating, Lambsquarters [12, 19]: 100 | Plant response rating, Lambsquarters [12, 18]: 100 | Lambsquarters plant response rating [12, 20]: 100 | Velvetleaf plant response rating [13, 16]: 60 | Plant response rating, Velvetleaf [13, 19]: 80 | Plant response rating, Velvetleaf [13, 18]: 80 | Velvetleaf plant response rating [13, 20]: 90 | Oat, Wild plant response rating (wild oat (Avena fatua); 125 g ai/ha): 0 | Plant response rating, Oat, Wild (wild oat (Avena fatua); 500 g ai/ha, scale 0 to 100): 10 | Blackgrass plant response rating ([14]; 125 g ai/ha): 20 | Plant response rating, Blackgrass ([14]; 500 g ai/ha, scale 0 to 100): 60
